Earlier results as cited in patent US20230381275A1, “MUSCULAR FUNCTION IMPROVING AGENT FOR SKELETAL MUSCLE OF WHICH FUNCTION IS DEGRADED DUE TO AGING” (OSAKA UNIVERSITY, priority 2020, published 2023).

System: not given
Settings: relative to SVVYGLR (SEQ ID NO.: 1); earlier work of the inventors; cited from earlier work
In the case of SVVFGLR [SEQ ID No.: 2], the angiogenic effect is given as “maintained”. For SVVWGLR [SEQ ID No.: 3], the angiogenic effect is listed as “maintained”. In the case of SVVYGL [SEQ ID NO.: 4], the angiogenic effect is given as “maintained”. For SVVYGLRG [SEQ ID NO.: 10], the angiogenic effect is given as “maintained”. In the case of VVYGLR [SEQ ID NO.: 5], the angiogenic effect is listed as “maintained”.

System: fibroblasts
Settings: see Patent Document 1; cited from earlier work
In the case of “fragment of osteopontin having SVVYGLR (SEQ ID No.: 1) at the C-terminus: thrombin-cleaved fragment of human osteopontin, or a portion thereof, having the sequence SVVYGLR at the C-terminus”, the “type III collagen production-promoting effect / type III collagen secretion” value is given as “effect equivalent to type III collagen production-promoting effect of SVVYGLR”.
